Test results: ChEMBL document CHEMBL1201862, “PubChem BioAssay data set” (2004)
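Briefly, cells in 96-well plates were exposed to five compound concentrations for 48 h, and endpoints were estimated by linear interpolation. Abbreviation: GI50, concentration required for 50% inhibition of growth.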 Calls of active or inactive are those of the source. Cut-off read from the data, not from the text of the source: active = GI50 up to about 1.1 µM and inactive = higher.

Experiments:
Assay in all cases: NCI anticancer screen, dose series, 48 h
[1] = system: A498
[2] = system: COLO 205
[3] = system: HCT-15
[4] = system: HT-29
[5] = system: Hs-578T
[6] = system: IGROV-1
[7] = system: MOLT-4
[8] = system: Malme-3M
[9] = system: NCI-H460
[10] = system: OVCAR-3
[11] = system: RXF 393
[12] = system: SF-539
[13] = system: SK-MEL-28
[14] = system: SK-MEL-2
[15] = system: SK-MEL-5
[16] = system: SN12C
[17] = system: SNB-75
[18] = system: T47D
[19] = system: TK-10
[20] = system: UO-31

SMILES | GI50 [1] | GI50 [2] | GI50 [3] [µM] | GI50 [4] | GI50 [5] | GI50 [6] | GI50 [7] | GI50 [8] | GI50 [9] | GI50 [10] | GI50 [11] | GI50 [12] | GI50 [13] | GI50 [14] | GI50 [15] | GI50 [16] | GI50 [17] | GI50 [18] | GI50 [19] | GI50 [20]
[N-]=[N+]=Nc1c(Cl)c(Cl)nc2ccccc12 | 81.5 µM (inactive) | > 100 µM (inactive) | > 100 | > 100 µM (inactive) | 61.8 µM (inactive) | 77.6 µM (inactive) | 32.7 µM (inactive) | > 100 µM (inactive) | > 100 µM (inactive) | 34.5 µM (inactive) | 88.5 µM (inactive) | > 100 µM (inactive) | > 100 µM (inactive) | > 100 µM (inactive) | > 100 µM (inactive) | 76 µM (inactive) | 44.8 µM (inactive) | 68.1 µM (inactive) | 95.9 µM (inactive) | > 100 µM (inactive)
CC(NC(=O)C(NC(=O)CNC(=O)OC(C)(C)C)C(C)C)C(=O)Oc1c(Cl)c(Cl)c(Cl)c(Cl)c1Cl (stereo not given) | 21.8 µM (inactive) | 17 µM (inactive) | 17.5 | 26.4 µM (inactive) | 20.1 µM (inactive) | 20.3 µM (inactive) | 34.6 µM (inactive) | 21.5 µM (inactive) | 18.6 µM (inactive) | 13.2 µM (inactive) | 17.5 µM (inactive) | 17.5 µM (inactive) | 26.6 µM (inactive) | 14.3 µM (inactive) | 17.1 µM (inactive) | 19.2 µM (inactive) | 28 µM (inactive) | 23.1 µM (inactive) | 26.8 µM (inactive) | 16 µM (inactive)
O=C(CC(=O)Nc1ccccc1)NNC(c1cc(/N=N/c2ccc(Br)cc2)ccc1O)P(O)O (stereo not given) | 2.43 µM (inactive) | 4.49 µM (inactive) | 0.425 | > 10 µM (inactive) | > 10 µM (inactive) | 9.62 µM (inactive) | 0.321 µM (active) | 2.38 µM (inactive) | 0.447 µM (active) | 0.333 µM (active) | > 10 µM (inactive) | 2.12 µM (inactive) | 4.45 µM (inactive) | > 10 µM (inactive) | 1.53 µM (inactive) | 4.04 µM (inactive) | 2.32 µM (inactive) | 3.31 µM (inactive) | 0.851 µM (active) | 2.52 µM (inactive)
Cc1cc(N(CCC#N)CCC#N)ccc1/C=C(\NC(=O)/C=C/c1ccccc1)C(=O)NN | > 100 µM (inactive) | > 100 µM (inactive) | > 100 | > 100 µM (inactive) | 31.3 µM (inactive) | > 75.3 µM (inactive) | > 100 µM (inactive) | > 100 µM (inactive) | > 66.8 µM (inactive) | > 100 µM (inactive) | > 57.3 µM (inactive) | 39.1 µM (inactive) | > 100 µM (inactive) | > 61.7 µM (inactive) | > 79.6 µM (inactive) | > 100 µM (inactive) | 24.7 µM (inactive) | 55 µM (inactive) | > 51.3 µM (inactive) | > 100 µM (inactive)
CN(C)CCNCc1ccc2c(-c3ccccc3)nc3cc(Cl)c(Cl)cc3n12 | 15.2 µM (inactive) | 6.92 µM (inactive) | 9.62 | 8.3 µM (inactive) | 17.9 µM (inactive) | 7.59 µM (inactive) | 8.53 µM (inactive) | 17.5 µM (inactive) | 9.68 µM (inactive) | 17.5 µM (inactive) | 4.98 µM (inactive) | 7.35 µM (inactive) | 5.78 µM (inactive) | 9.57 µM (inactive) | 8.32 µM (inactive) | 9.93 µM (inactive) | 7.46 µM (inactive) | 4.94 µM (inactive) | 10.9 µM (inactive) | 7.83 µM (inactive)
